Measured values reported in patent US20230011398A1, “COMBINATION THERAPY APPROACH TO ELIMINATE HIV INFECTIONS” (priority 2019, published 2023).

Experiments:
[1] = test system: HIV-1-infected Hu-HSC mice; test: SECH treatment of HIV-1-infected Hu-HSC mice (HIV-1 by RT-PCR, rebound after withdrawal); assay type: in vivo; conditions: JQ1 25 mg/kg b.w. included in SECH
Experimental: Raltegravir and BMS-663068 (20 mg/kg b.w.) were included as the ART regimen daily. Mice in the control group received ART only daily.
Quantification of HIV-1 mRNA and DNA. HIV-1 mRNA was measured by RT-PCR similar to the described protocols. […] The reaction was carried out by iTaq Universal Probes Supermix (Bio-Rad) with a QuantStudio 5 Real-Time PCR System and analyzed with the QuantStudio Design and Analysis Software (Applied Biosystem). Cycle threshold (Ct) values were calibrated using standard curve generated with the standard samples with known amounts of viral copies.
Spleen cells were isolated and red blood cells were lysed with ammonium chloride lysing buffer (0.15 M NH4Cl, 10 mM KHCO3, 0.1 mM EDTA). Bone marrow cells were collected from femur and tibia. […]
Generation of humanized mice for HIV-1 infection and cure studies. […] Three months later, reconstitution of human immune cells in mouse peripheral blood was determined by flow cytometry. […]
Raltegravir and BMS-663068 (20 mg/kg b.w.) alone were also administered on the alternate days. […] During treatments, mice were monitored daily for body weight, food consumption and mobilities. […]
Peripheral blood was collected at different intervals to detect HIV-1 mRNA by RT-PCR. […] Virus clearance was determined in the spleen, bone marrow by RT-PCR, TZA assay and p24 intracellular staining.

[2] = test system: CMT latently infected with HIV-1; test: HIV-1 latency reversal in latently infected central memory T cells (p24 staining, HIV-1 mRNA RT-PCR); assay type: cell-based, human; conditions: for number of HIV-1 p24-producing T cells after latency reversal: latently infected CMT stimulated with IDB, SAR405 2 μM or CQ 10 μM
Source text: Flow cytometry. The following antibodies from Biolegend were used for flow cytometry: Pacific Blue-anti-mouse CD45 (1:100, 103126, clone 30-F11,) APC-anti-human CD45 (1:100, 304012, clone HI30), Pacific Blue-anti-human CD19 (1:100, 302232, clone HIB19), PE-anti-human CD4 (1:100, 317414, clone OKT4), APC/Fire-750-anti-human CD8 (1:100, 34474, clone SK1), FITC-anti-human CD56 (1:100, 392413, clone QA17A16), Pacific Blue-anti-human CD19 (1:100, 302232, clone HIB19), Pacific Blue-anti-human CD3 (1:100, 300329, clone HIT3a), PE/Cy7-anti-HLA-HLA-DR, DP, DQ (1:100, 361708, clone Tü139), PerCP/Cy5.5-anti-human CD11b (1:100, 301327, clone ICRF44), APC/Fire-750-anti-human CD163 (1:100, 333633, clone GHI/61), PE-anti-human CD123 (1:100, 306005, clone 6H6), Alexa Fluor 488 anti-human CD11c (1:100, 301618, clone 3.9), PerCP/Cy5.5-anti-human CD3 (1:100, 300328, clone HIT3a), PerCP/Cy5.5 anti-human CD123 (1:100, 306016, clone 6H6), FITC-anti-mouse CD45 (1:100, 103108, clone 30-F11), PE/Cy7 anti-human CD197 (CCR7) (1:100, 353226, clone G043H7), PE-anti-human CD45R0 (1:100, 304244, clone UCHL1), FITC-anti-human CD45RA (1:100, 304148, clone HI100) and Alexa Fluor 488-anti-CD68 (1:30, 333812, clone Y1/82A), PerCP/Cy5.5-anti-human CD19 (1:100, 302230, clone HIB19), PE-anti-human CD27 (1:100, 356406, clone M-T271) and Pacific Blue-anti-human IgD (1:100, 348224, clone IA6-2). PE-anti-human CD3 (1:100, 556612, clone SP34) and V50-anti-human CD4 (1:100, 560345, clone RPA-T4) were from BD Biosciences. The cells stained with indicated antibodies were analyzed using a BD LSR II flow cytometer (BD Biosciences). To detect HIV-1 p24, spleen cells from Hu-HSC mice were stimulated with 5 μg/ml PHA (Sigma) and 6 ng/ml IL-2 (Biolegend). The cells were stained for T cell markers, followed by fixation and permeabilization using the Cytofix/Cytoperm buffer (BD Bioscience) and intracellular staining with PE-conjugated anti-p24 (1:30, 6604667, clone KC57, Beckman Coulter). The cells were analyzed by flow cytometry using a BD LSR II flow cytometer (BD Bioscience) and FlowJo software (version 10.5.3, BD Bioscience).
T cell isolation and infection with HIV-1. Peripheral blood mononuclear cells (PBMCs) of anonymous healthy donors from the Gulf Coast Blood Center were used to purify CD4^+ T cells with anti-CD4 MACS beads (Miltenyi Biotec). CD3^+CD4^+CD45RA^+CD45RO^−CCR7^+ naïve T cells, CD3^+CD4^+CD45RA^−CD45RO^+CCR7+ central memory T cells (CMT) and CD3^+CD4^+CD45RA^−CD45RO^+CCR7^− effector memory T cells (EMT) were sorted using a BD FACSAria flow cytometer (BD Bioscience). Naive CD4^+ T cells were stimulated with 5 μg/ml PHA and 6 ng/ml IL-2 in RPMI complete medium for 2 days to generate activated CD4^+ T cells. Sorted T cell subsets or activated T cells were infected with HIV-1 CXCR4-tropic NL4-3 or CCRS-tropic AD8 (both virus clones were obtained from the NIH AIDS Reagent Program) at the indicated MOI for 2 h. The cells were washed with PBS and cultured in RPMI complete medium containing 30 nM CCL19 (Biolegend) and 0.3 ng/ml IL-2 (Biolegend) and for 4 days to establish latent HIV infection as described.
Naïve T cells, activated T cells, CMT or EMT with or without infection with HIV-1 (NL4-3, 1 MOI) were cultured for 4 days in the presence of 30 nM CCL19 and 0.3 ng/ml IL-2 for 4 days to establish latent HIV infection. The cells with or without HIV-1 infections were stimulated with 0.1 μM IDB (Ingenol-3,20-dibenzonate, ENZO Life Sciences) in the presence of 0.2 μM ABT-263 (Adooq Bioscience), 2 μM SAR405 (MedChemExpress) or 10 μM chloroquine (CQ, Sigma) as indicated for 48 h. The cells were then incubated with 1 μM FITC-DEVD-FMK (Biovision), followed by staining with APC-Annexin V (Biolegend) and intracellular staining with PE-anti-HIV p24. The cells were analyzed by flow cytometry. The percentage of cell death was calculated by the loss of live cells negative for annexin V and DEVD staining by comparing treated and untreated groups: (untreated—treated)/untreated x 100%. […]

[3] = test system: splenocytes of HIV-1-infected Hu-HSC mice; test: PHA stimulation of splenocytes from Hu-HSC mice 10 days after HIV-1 infection; assay type: cell-based; conditions: PHA 24 h
Experimental: FIGS. 11A-11C show analyses of Hu-HSC mice by flow cytometry. (FIG. 11A) Flow cytometry analyses of immune cells in the peripheral blood of Hu-HSC mice. NK, nature killer cells; DC, dendritic cells; M1, M1 macrophages; M2, M2 macrophages. (FIG. 11B) Spleen cells were isolated from Hu-HSC mice (n=4) 10 days post HIV-1 infection and cultured with or without PHA for 24 h. Culture media were collected for HIV-1 mRNA determination by RT-PCR. Data are presented as mean ±SD. PHA vs. control, **p=0.0088 (unpaired two-tailed t test). (FIG. 11C) Spleen cells treated in (b) were stained for CD4, followed by intracellular staining of HIV-1 p24 and flow cytometry analysis. […] Data are presented as mean ±SD. PHA vs. control, **p=0.0003 (unpaired two-tailed t test).
Flow cytometry. […] The cells stained with indicated antibodies were analyzed using a BD LSR II flow cytometer (BD Biosciences). […] The cells were analyzed by flow cytometry using a BD LSR II flow cytometer (BD Bioscience) and FlowJo software (version 10.5.3, BD Bioscience).

HIV-1-infected T cells = test: Annexin V / DEVD-FITC / p24 cell death assay in T cells with or without HIV-1 infection; assay type: cell-based, human; conditions: for IDB-induced cell death in HIV-1-infected CMT: autophagy inhibitor added to 100 nM IDB, 24 h; for IDB-induced killing of T cells latently infected by HIV-1: added to 0.1 μM IDB, SAR405 2 μM or ABT-263 0.2 μM
Experimental: Naïve T cells, activated T cells, CMT or EMT with or without infection with HIV-1 (NL4-3, 1 MOI) were cultured for 4 days in the presence of 30 nM CCL19 and 0.3 ng/ml IL-2 for 4 days to establish latent HIV infection. […] The cells were then incubated with 1 μM FITC-DEVD-FMK (Biovision), followed by staining with APC-Annexin V (Biolegend) and intracellular staining with PE-anti-HIV p24. The cells were analyzed by flow cytometry. The percentage of cell death was calculated by the loss of live cells negative for annexin V and DEVD staining by comparing treated and untreated groups: (untreated—treated)/untreated x 100%.

[4] = test system: HIV-1-infected cells and uninfected bystander T cells; test: Mixed culture of HIV-1-infected and CellTrace Violet-labeled uninfected T cells; conditions: alone or together, 0.2 μM BMS-626529 present, 48 h
Experimental: To determine the specificity in the killing of HIV-1 infected cells, uninfected CD4 cells were labeled with CellTrace Violet dye (ThermoFisher Scientific) and mixed with HIV-1-infected cells at the ratio of 1:1. The cells were resuspended in RIPMI complete medium containing 0.2 μM BMS-626529, with 0.1 μM IDB, 0.2 μM ABT-263 and 2 μM SAR405 as indicated for 48 h. The cells were incubated with 1 μM FITC-DEVD-FMK, followed by staining with APC-Annexin and analyses by flow cytometry.

Row | Compound | number of HIV-1 p24-producing T cells after latency reversal [2] | IDB-induced cell death in HIV-1-infected CMT (HIV-1-infected T cells) | IDB-induced killing of T cells latently infected by HIV-1 (HIV-1-infected T cells; 48 h) | killing of HIV-1-infected cells in mixed culture [4] | killing of uninfected bystander cells in mixed culture [4] | further results
1 | Cc1sc2c(c1C)C(c1ccc(Cl)cc1)=N[C@@H](CC(=O)OC(C)(C)C)c1nnc(C)n1-2 [JQ1] | – | – | – | – | – | HIV-1 reactivation and clearance on inclusion of JQ1 in SECH [1]: further increased HIV-1 reactivation and clearance
2 | phytohemagglutinin [PHA] | – | – | – | – | – | latency reversal of HIV-1 shown by induction of p24 expression ([2]; CMT, HIV-1 NL4-3 0.1 MOI, 4 days latency): led to latency reversal of HIV-1; latency reversal observed by expression of HIV-1 mRNA after stimulation ([2]; latently infected cells, pol RT-PCR): Latency reversal was also observed; expression of HIV-1 mRNA in splenocytes [3]: induced the expression of HIV-1 mRNA; production of Gag p24 in CD4+ T cells [3]: production of Gag p24
3 | CCN(CC)CCCC(C)Nc1ccnc2cc(Cl)ccc12 (centres unmarked) [CQ, Chloroquine] | reduced the number of HIV-1 p24-producing T cells | promoted | – | – | – | –
4 | C[C@@H]1COCCN1c1cc(=O)n2c(n1)N(Cc1cncc(Cl)c1)[C@H](C(F)(F)F)CC2 [SAR405] | decreased the number of HIV-1 p24-producing T cells | promoted | increased IDB-induced killing | killed HIV-1-infected cells | resistant | induction of HIV-1 p24 expression by IDB-induced latency reversal ([2]; CMT infected with HIV-1 AD8 at 1 MOI): inhibited
5 | CC1(C)CCC(c2ccc(Cl)cc2)=C(CN2CCN(c3ccc(C(=O)NS(=O)(=O)c4ccc(N[C@H](CCN5CCOCC5)CSc5ccccc5)c(S(=O)(=O)C(F)(F)F)c4)cc3)CC2)C1 [ABT-263, navitoclax] | – | – | increased IDB-mediated cell death | killed HIV-1-infected cells | resistant | loss of viable HIV-1 p24+ cells in IDB-stimulated HIV-1-infected cells (HIV-1-infected T cells; ABT-263 0.2 μM with IDB, 48 h): significantly increased
